Results from patent US7022716B2, “Cyclic amine phenyl beta-3 adrenergic receptor agonists” (Wyeth, priority 2000, dated 2006).

Assays:
[1] = biological target: T1, human β3 adrenergic receptor (Homo sapiens, UniProt P13945); assay: cAMP (SPA) response in CHO cells transfected with human β3 adrenergic receptor; assay type: cell-based; set-up: key: fraction of maximal isoproterenol (10^-5 M) response; conditions: maximal response relative to maximal response of isoproterenol at 10^-5 M
T1 construct: Full length β3 AR clones (402 amino acids) containing the last 6 amino acids of hβ3-AR are prepared; expressed in transfected cells; host or cells: CHO (Chinese hamster ovary) cells
T1 sequence (P13945 whole entry): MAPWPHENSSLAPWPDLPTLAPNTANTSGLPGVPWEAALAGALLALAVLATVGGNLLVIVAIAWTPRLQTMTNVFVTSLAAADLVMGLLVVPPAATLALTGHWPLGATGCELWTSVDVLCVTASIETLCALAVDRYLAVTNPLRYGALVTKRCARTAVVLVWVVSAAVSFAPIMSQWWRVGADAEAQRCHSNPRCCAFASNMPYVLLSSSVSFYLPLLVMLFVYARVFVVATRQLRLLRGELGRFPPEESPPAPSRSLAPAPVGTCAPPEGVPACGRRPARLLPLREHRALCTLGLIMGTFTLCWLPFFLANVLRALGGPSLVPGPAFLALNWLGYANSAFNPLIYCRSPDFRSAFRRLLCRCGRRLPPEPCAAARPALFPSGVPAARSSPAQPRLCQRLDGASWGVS
Outline: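 Reactions were stopped with 0.2N HCl and neutralised, and cAMP was measured by SPA. Activity is expressed as percent of the maximal 10^−5 M isoproterenol response.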

Compound	melting point	IA(β3) [1]
O=C1NC(=O)C(Cc2ccc(N3CCC(NC[C@H](O)c4cccnc4)CC3)cc2)S1 (stereo partly drawn) [Example 136, 5-{4-[4-((2R)-2-Hydroxy-2-pyridin-3-yl-ethylamino)-piperidin-1-yl]-benzyl}-thiazolidine-2,4-dione]	87 °C (dec.)	0.9
CS(=O)(=O)Nc1cc([C@@H](O)CNC2CCN(c3ccc(-c4nnn(CC(=O)O)n4)cc3)CC2)ccc1O [Example 100, [5-(4-{4-[((2R)-2-Hydroxy-2-{4-hydroxy-3-[(methylsulfonyl)amino]phenyl}ethyl)amino]-1-piperidinyl}phenyl)-2H-tetraazol-2-yl]acetic acid]	> 240 °C (dec.)	0.9
CCCC(=O)Nc1ccc(N2CCC(NC[C@H](O)COc3cccc4[nH]c5ccccc5c34)CC2)cc1 [Example 387, N-[4-(4-{[(2S)-3-(9H-Carbazol-4-yloxy)-2-hydroxypropyl]amino}-1-piperidinyl)phenyl]butanamide]	194 to 199 °C	0.56
O=C1CCc2c(OC[C@@H](O)CNC3CCN(c4ccc(CC5SC(=O)NC5=O)cc4)CC3)ccc(O)c2N1 (stereo partly drawn) [Example 91, 5-(4-{4-[(2S)-2-Hydroxy-3-(8-hydroxy-2-oxo-1,2,3,4-tetrahydro-quinolin-5-yloxy)-propylamino]-piperidin-1-yl}-benzyl)-thiazolidine-2,4-dione]	> 140 °C (dec.)	1.2
O=C1NC(=O)C(Cc2ccc(N3CCC(NC[C@H](O)c4ccc(O)c(NS(=O)(=O)c5ccccc5)c4)CC3)cc2)S1 (stereo partly drawn) [Example 96, N-(5-{(1R)-2-[(1-{4-[(2,4-Dioxo-1,3-thiazolidin-5-yl)methyl]phenyl}piperidin-4-yl)amino]-1-hydroxyethyl}-2-hydroxyphenyl)benzenesulfonamide]	> 150 °C (dec.)	0.93
CCOC(=O)Cn1nnnc1-c1ccc(N2CCC(NC[C@H](O)c3ccc(O)c(NS(C)(=O)=O)c3)CC2)cc1 [Example 98]	> 140 °C (dec.)	1
O=C1NC(=O)C(Cc2ccc(N3CCC(NC[C@H](O)COc4ccc(O)c(NS(=O)(=O)c5ccccc5)c4)CC3)cc2)S1 (stereo partly drawn) [Example 93, N-[5-((2S)-3-{1-[4-(2,4-Dioxo-thiazolidin-5-ylmethyl)-phenyl]-piperidin-4-ylamino}-2-hydroxy-propoxy)-2-hydroxy-phenyl]-benzenesulfonamide]	> 120 °C (dec.)	1
O=C1NC(=O)C(Cc2ccc(N3CCC(NC[C@H](O)COc4ccc(O)cc4)CC3)cc2)S1 (stereo partly drawn) [Example 81, 5-(4-{4-[(2S)-2-Hydroxy-3-(4-hydroxy-phenoxy)-propylamino]-piperidin-1-yl}-benzyl)-thiazolidine-2,4-dione]	> 160 °C (dec.)	0.89
CS(=O)(=O)Nc1cc(C(O)CNC2CCN(c3ccc(C=C4NC(=O)NC4=O)cc3)CC2)ccc1O (stereo not shown) [Example 85, N-[5-(2-{1-[4-(2,5-Dioxo-imidazolidin-4-ylidenemethyl)-phenyl]-piperidin-4-ylamino}-1-hydroxy-ethyl)-2-hydroxy-phenyl]-methanesulfonamide]	> 201 °C (dec.)	0.94
CCOC(=O)CN1C(=O)SC(Cc2ccc(N3CCC(NC[C@H](O)c4ccc(O)c(NS(C)(=O)=O)c4)CC3)cc2)C1=O (stereo partly drawn) [Example 66, 5-[[4-[4-[[(R)-2-Hydroxy-2-[4-hydroxy-3-[(methylsulfonyl)amino]phenyl]ethyl]amino]-1-piperidinyl]phenyl]methyl]-2,4-dioxo-3-thiazolidineacetic acid ethyl-ester]	153 to 155 °C	0.81
CCOC(=O)/C=C/c1ccc(N2CCC(NC[C@H](O)c3ccc(O)c(NS(C)(=O)=O)c3)CC2)cc1 [Example 183, (E)-3-(4-{4-[(2R)-2-Hydroxy-2-(4-hydroxy-3-methanesulfonylamino-phenyl)-ethylamino]-piperidin-1-yl}-phenyl)-acrylic acid ethyl ester]	103 to 106 °C	0.84
CC(C)C[C@@H](CO)NC(=O)c1ccc(N2CCC(NC[C@H](O)c3ccc(O)c(NS(C)(=O)=O)c3)CC2)cc1 [Example 211, 4-{4-[((2R)-2-Hydroxy-2-{4-hydroxy-3-[(methylsulfonyl)amino]phenyl}ethyl)amino]-1-piperidinyl}-N-[(1S)-1-(hydroxymethyl)-3-methylbutyl]benzamide]	120 to 122 °C	1
CS(=O)(=O)Nc1cc(OC[C@@H](O)CNC2CCN(c3ccc(CC4SC(=O)NC4=O)cc3)CC2)ccc1O (stereo partly drawn) [Example 92, N-[5-((2S)-3-{1-[4-(2,4-Dioxo-thiazolidin-5-ylmethyl)-phenyl]-piperidin-4-ylamino}-2-hydroxy-propoxy)-2-hydroxy-phenyl]-methanesulfonamide]	> 70 °C (dec.)	1.1

The next lines start with the values.

melting point	IA(β3) [1]	Compound
140 to 144 °C	0.9	O=C(CCC1CCCC1)Nc1ccc(N2CCC(NC[C@H](O)COc3cccc4[nH]c(=O)[nH]c34)CC2)cc1 [Example 392, 3-Cyclopentyl-N-{4-[4-({(2S)-2-hydroxy-3-[(2-oxo-2,3-dihydro-1H-benzimidazol-4-yl)oxy]propyl}amino)-1-piperidinyl]phenyl}propanamide]
> 85 °C (dec.)	1.2	CCOC(=O)[C@@H](NC(=O)c1ccc(N2CCC(NC[C@H](O)c3ccc(O)c(NS(C)(=O)=O)c3)CC2)cc1)C(C)C [Example 202, (2S)-2-(4-{4-[(2R)-2-Hydroxy-2-(4-hydroxy-3-methanesulfonylamino-phenyl)-ethylamino]-piperidin-1-yl}-benzoylamino)-3-methyl-butyric acid ethyl ester]
225 to 227 °C	0.91	CS(=O)(=O)Nc1cc([C@@H](O)CNC2CCN(c3ccc(-c4cc(=O)[nH][nH]4)cc3)CC2)ccc1O [Example 146, N-[(2R)-2-Hydroxy-5-(1-hydroxy-2-{1-[4-(5-oxo-2,5-dihydro-1H-pyrazol-3-yl)-phenyl]-piperidin-4-ylamino}-ethyl)-phenyl]-methanesulfonamide]
135 to 137 °C	1.1	CS(=O)(=O)Nc1cc([C@@H](O)CNC2CCN(c3ccc(C(=O)N[C@H]4CCCCNC4=O)cc3)CC2)ccc1O [Example 212]
> 208 °C (dec.)	0.94	O=C1NC(=O)C(=Cc2ccc(N3CCC(NC[C@H](O)COc4ccc(O)cc4)CC3)cc2)S1 [Example 76, 5-(4-{4-[(2S)-2-Hydroxy-3-(4-hydroxy-phenoxy)-propylamino]-piperidin-1-yl}-benzylidene)-thiazolidine-2,4-dione]
> 105 °C (dec.)	0.59	CS(=O)(=O)Nc1cc([C@@H](O)CNC2CCN(c3ccc(CC4SC(=O)NC4=O)cc3)CC2)ccc1Cl (stereo partly drawn) [Example 95, N-[2-Chloro-5-((1R)-2-{1-[4-(2,4-dioxo-thiazolidin-5-ylmethyl)-phenyl]-piperidin-4-ylamino}-1-hydroxy-ethyl)-phenyl]-methanesulfonamide]
130 to 132 °C	0.36	O=C1NC(=O)C(Cc2ccc(N3CCC(NC[C@H](O)COc4cccnc4)CC3)cc2)S1 (stereo partly drawn) [Example 125, 5-(4-{4-[(2S)-2-Hydroxy-3-(pyridin-3-yloxy)-propylamino]-piperidin-1-yl}-benzyl)-thiazolidine-2,4-dione]
